Where two headings read alike, the source gives them in different places.
Key:
[1] = tested on: cells from the thymus of normal BALB/c mice (lymphocyte proliferation); assay: Comitogen-induced thymocyte proliferation procedure (LAF); type: cell-based; conditions: Mus musculus
Method: (§1) Immunosuppressive activity for representative compounds of this invention was evaluated in an in vitro standard pharmacological test procedure to measure lymphocyte proliferation (LAF) and in an in vivo standard pharmacological test procedure which evaluated the survival time of a pinch skin graft.
The comitogen-induced thymocyte proliferation procedure (LAF) was used as an in vitro measure of the immunosuppressive effects of representative compounds. Briefly, cells from the thymus of normal BALB/c mice are cultured for 72 hours with PHA and IL-1 and pulsed with tritiated thymidine during the last six hours. Cells are cultured with and without various concentrations of rapamycin, cyclosporin A, or test compound. Cells are harvested and incorporated radioactivity is determined. Inhibition of lymphoproliferation is assessed as percent change in counts per minute from non-drug treated controls. For each compound evaluated, rapamycin was also evaluated for the purpose of comparison. An IC50 was obtained for each test compound as well as for rapamycin. […] The results obtained for the representative compounds of this invention are presented as IC50s.

[2] = tested on: pinch skin graft from male BALB/c donors transplanted to male C3H(H-2K) recipients; assay: Survival time of pinch skin graft; type: in vivo, mouse; conditions: 4 mg/kg; intraperitoneally or orally; untreated usually rejected within 6-7 days
Method: as §1
Representative compounds of this invention were also evaluated in an in vivo test procedure designed to determine the survival time of pinch skin graft from male BALB/c donors transplanted to male C3 H(H-2K) recipients. The method is adapted from Billingham R. E. and Medawar P. B., J. Exp. Biol. 28:385-402, (1951). Briefly, a pinch skin graft from the donor was grafted on the dorsum of the recipient as a allograft, and an isograft was used as control in the same region. The recipients were treated with either varying concentrations of test compounds intraperitoneally or orally. Rapamycin was used as a test control. Untreated recipients serve as rejection control. The graft was monitored daily and observations were recorded until the graft became dry and formed a blackened scab. This was considered as the rejection day. The mean graft survival time (number of days ±S.D.) of the drug treatment group was compared with the control group. […] Results are expressed as the mean survival time in days. Untreated (control) pinch skin grafts are usually rejected within 6-7 days. The results shown in Table 1 are based on a dose of 4 mg/kg of test compound. A survival time of 11.67±0.63 days was obtained for rapamycin at 4 mg/kg.

[3] = Relative oral potency: oral and i.p. ED50s in the skin graft test procedure; type: in vivo; conditions: mouse, ratio of oral and i.p. ED50s, p.o. 40, 10, 2.5 mg/kg, i.p. 4, 1, 0.25 mg/kg, 6 consecutive days, data obtained in cremophor, lower ratio = greater oral bioavailability
Method: The relative oral potency is determined by comparing the oral and i.p. ED50s obtained in the skin graft standard pharmacological test procedure. Briefly, the compound to be tested is evaluated at the doses of 40, 10, and 2.5 mg/kg for p.o. administration and 4, 1, and 0.25 mg/kg for i.p. administration, both administered for 6 consecutive days in the skin graft test procedure so that a dose response curve can be generated for both oral and i.p. administration. The data are subjected to a parallel line analysis and an oral and i.p. ED50 is calculated for the compound tested, and the ED50s are expressed as a ratio according to the following formula: [formula]
When comparing oral potency for different compounds that have been evaluated, the lower the ratio, the greater the oral bioavailability. The oral bioavailability serves as a measure of oral potency.

adjuvant arthritis = conditions: model for rheumatoid arthritis; cited from earlier work
Candida albicans = conditions: particularly against Candida albicans, both in vitro and in vivo; cited from earlier work
[4] = tested on: experimental allergic encephalomyelitis; conditions: model for multiple sclerosis; cited from earlier work
[5] = 72 hours with PHA and IL-1, tritiated thymidine during last six hours, read-out: LAF IC50

SMILES	IC50 [1, 5]	Skin Graft mean survival time (days ± SD) [2]	further results
CO[C@H]1C[C@@H]2CC[C@@H](C)[C@@](O)(O2)C(=O)C(=O)N2CCCC[C@H]2C(=O)O[C@H]([C@H](C)C[C@@H]2CC[C@@H](OC(=O)C[C@H](NC(=O)OCc3ccccc3)C(=O)O)[C@H](OC)C2)CC(=O)[C@H](C)/C=C(\C)[C@@H](O)[C@@H](OC)C(=O)[C@H](C)C[C@H](C)/C=C/C=C/C=C/1C [Example 1, Rapamycin 42-ester with (S)-3-carboxy-3-[[[phenylmethoxy]carbonyl]amino]-propanoic acid]	10.7 nM	10.00 ± 0.00 days	–
CO[C@H]1C[C@@H]2CC[C@@H](C)[C@@](O)(O2)C(=O)C(=O)N2CCCC[C@H]2C(=O)O[C@H]([C@H](C)C[C@@H]2CC[C@@H](OC(=O)C[C@H](N)C(=O)O)[C@H](OC)C2)CC(=O)[C@H](C)/C=C(\C)[C@@H](O)[C@@H](OC)C(=O)[C@H](C)C[C@H](C)/C=C/C=C/C=C/1C [Example 3, Rapamycin 42-ester with (S)-3-amino-3-carboxypropanoic acid]	2.5 nM	10.17 ± 0.75 days	–
CCCOC(=O)N[C@@H](CCC(=O)O[C@@H]1CC[C@@H](C[C@@H](C)[C@@H]2CC(=O)[C@H](C)/C=C(\C)[C@@H](O)[C@@H](OC)C(=O)[C@H](C)C[C@H](C)/C=C/C=C/C=C(\C)[C@@H](OC)C[C@@H]3CC[C@@H](C)[C@@](O)(O3)C(=O)C(=O)N3CCCC[C@H]3C(=O)O2)C[C@H]1OC)C(=O)O [Example 4, Rapamycin 42-ester with (S)-4-carboxy-4-[[[propyloxy]carbonyl]amino]butanoic acid]	3.2 nM	11.00 ± 1.00 days	–
CCCOC(=O)N[C@H](CCC(=O)O[C@@H]1CC[C@@H](C[C@@H](C)[C@@H]2CC(=O)[C@H](C)/C=C(\C)[C@@H](O)[C@@H](OC)C(=O)[C@H](C)C[C@H](C)/C=C/C=C/C=C(\C)[C@@H](OC)C[C@@H]3CC[C@@H](C)[C@@](O)(O3)C(=O)C(=O)N3CCCC[C@H]3C(=O)O2)C[C@H]1OC)C(=O)O [Example 5, Rapamycin 42-ester with (R)-4-carboxy-4[[[propyloxy]carbonyl]amino]-butanoic acid]	3.9 nM	10.83 ± 0.75 days	–
CO[C@H]1C[C@@H]2CC[C@@H](C)[C@@](O)(O2)C(=O)C(=O)N2CCCC[C@H]2C(=O)O[C@H]([C@H](C)C[C@@H]2CC[C@@H](OC(=O)CC[C@H](N)C(=O)O)[C@H](OC)C2)CC(=O)[C@H](C)/C=C(\C)[C@@H](O)[C@@H](OC)C(=O)[C@H](C)C[C@H](C)/C=C/C=C/C=C/1C [Example 7, Rapamycin 42-ester with (S)-4-amino-4-carboxy-butanoic acid]	14 nM	10.80 ± 0.40 days	–
CO[C@H]1C[C@@H]2CC[C@@H](C)[C@@](O)(O2)C(=O)C(=O)N2CCCC[C@H]2C(=O)O[C@H]([C@H](C)C[C@@H]2CC[C@@H](OC(=O)CC[C@@H](N)C(=O)O)[C@H](OC)C2)CC(=O)[C@H](C)/C=C(\C)[C@@H](O)[C@@H](OC)C(=O)[C@H](C)C[C@H](C)/C=C/C=C/C=C/1C [Example 9, Rapamycin 42-ester with (R)-4-amino-4-carboxybutanoic acid]	7.8 nM	11.20 ± 1.00 days	–
CO[C@H]1C[C@@H]2CC[C@@H](C)[C@@](O)(O2)C(=O)C(=O)N2CCCC[C@H]2C(=O)O[C@H]([C@H](C)C[C@@H]2CC[C@@H](OC(=O)CC[C@H](NC(=O)OCc3ccccc3)C(=O)O)[C@H](OC)C2)CC(=O)[C@H](C)/C=C(\C)[C@@H](O)[C@@H](OC)C(=O)[C@H](C)C[C@H](C)/C=C/C=C/C=C/1C [Example 10]	27.1 nM	10.17 ± 0.41 days	–
CO[C@H]1C[C@@H]2CC[C@@H](C)[C@@](O)(O2)C(=O)C(=O)N2CCCC[C@H]2C(=O)O[C@H]([C@H](C)C[C@@H]2CC[C@@H](OC(=O)CC[C@H](N)C(=O)OC(C)(C)C)[C@H](OC)C2)CC(=O)[C@H](C)/C=C(\C)[C@@H](O)[C@@H](OC)C(=O)[C@H](C)C[C@H](C)/C=C/C=C/C=C/1C [Example 11, Rapamycin 42-ester with-(S)-4-amino-5-(1,1-dimethylethoxy)-5-oxo-pentanoic acid]	1.1 nM	11.50 ± 1.05 days	selectivity ratio [3]: 5.6
CO[C@H]1C[C@@H]2CC[C@@H](C)[C@@](O)(O2)C(=O)C(=O)N2CCCC[C@H]2C(=O)O[C@H]([C@H](C)C[C@@H]2CC[C@@H](OC(=O)CC[C@H](NC(=O)OC(C)(C)C)C(=O)OC(C)(C)C)[C@H](OC)C2)CC(=O)[C@H](C)/C=C(\C)[C@@H](O)[C@@H](OC)C(=O)[C@H](C)C[C@H](C)/C=C/C=C/C=C/1C [Rapamycin 42-ester with (S)-5-tert-butoxy-4-tert-butoxycarbonylamino-5-oxo-pentanoic acid, reference compound]	–	–	selectivity ratio [3]: 188
CO[C@H]1C[C@@H]2CC[C@@H](C)[C@@](O)(O2)C(=O)C(=O)N2CCCC[C@H]2C(=O)O[C@H]([C@H](C)C[C@@H]2CC[C@@H](O)[C@H](OC)C2)CC(=O)[C@H](C)/C=C(\C)[C@@H](O)[C@@H](OC)C(=O)[C@H](C)C[C@H](C)/C=C/C=C/C=C/1C [rapamycin]	–	11.67 ± 0.63 days	IC50 ([1]; read-out: IC50 of rapamycin as comparator (LAF)): 2.8 to 11.6 nM; effect in the adjuvant arthritis model (adjuvant arthritis): effective; antifungal activity (Candida albicans): antifungal activity; effect in the experimental allergic encephalomyelitis model [4]: effective

Reference: patent publication US5389639A, “Amino alkanoic esters of rapamycin” (American Home Products Company, priority 1993, dated 1995)
